Experimental data: DBAASP
Converted amounts (≈) assume the structure as drawn. Each block holds one compound with its values, some of them ahead of it.

How the values were obtained:
Assay in all cases: ≥ marks a high value that may be exact or a test limit, other limits are often not marked, values filed in µg/mL are converted to µM
[1] = tested on: Staphylococcus aureus ATCC 29213
[2] = tested on: Acinetobacter baumannii ATCC 19606
[3] = tested on: Cryptococcus neoformans ATCC 208821
[4] = tested on: Candida tropicalis ATCC 750
[5] = tested on: Candida albicans ATCC 90028
[6] = tested on: Escherichia coli ATCC 25922
[7] = tested on: Klebsiella pneumoniae ATCC 700603
[8] = tested on: Enterococcus faecium ATCC 35667
[9] = tested on: Staphylococcus aureus VRSA1
[10] = tested on: Streptococcus pneumoniae ATCC 700677
[11] = tested on: Bacillus megaterium ATCC 13632
[12] = tested on: Bacillus subtilis ATCC 6051
[13] = tested on: Pseudomonas aeruginosa ATCC 27853
[14] = tested on: Staphylococcus aureus ATCC 43300
[15] = tested on: Escherichia coli BL21
[16] = tested on: Pseudomonas aeruginosa PAO1
[17] = tested on: Streptococcus pyogenes M1T1 5448
[18] = tested on: Klebsiella pneumoniae ATCC BAA-1705
[19] = tested on: Escherichia coli W3110
[20] = tested on: Staphylococcus aureus ATCC 29231
[21] = tested on: Acinetobacter baumannii ATCC 7978
[22] = tested on: Enterococcus faecium E007
[23] = tested on: Pseudomonas aeruginosa PA14
[24] = tested on: Klebsiella aerogenes ATCC 13048
[25] = tested on: Staphylococcus aureus MW2
[26] = tested on: Candida albicans ATCC 10231
[27] = tested on: Klebsiella pneumoniae WGLW2
[28] = tested on: Shigella sonnei ATCC 11060
[29] = tested on: Salmonella enterica subsp. enterica serovar Typhimurium ATCC 13311
[30] = tested on: Listeria monocytogenes 10403s
[31] = tested on: Vibrio cholerae O1 Inaba
[32] = tested on: Enterococcus faecalis ATCC 29212
[33] = tested on: Bacillus cereus ATCC 11778
[34] = tested on: Staphylococcus aureus ATCC 25923
[35] = tested on: Acinetobacter baumannii
[36] = tested on: Escherichia coli O157:H7
[37] = tested on: Staphylococcus epidermidis ATCC 12228

- MIC [1]: 12.5 µM (≈ 16 µg/mL)
- MIC [2]: 100 µM (≈ 128 µg/mL)
- MIC [3]: 25 µM (≈ 32 µg/mL)
- MIC [4]: 25 µM (≈ 32 µg/mL)
- MIC [5]: ≥ 100 µM
- MIC [6]: 100 µM (≈ 128 µg/mL)
- MIC [7]: 200 µM (≈ 256 µg/mL)
- MIC [8]: 25 µM (≈ 32 µg/mL)
- MIC [9]: 12.5 µM (≈ 16 µg/mL)
- MIC [10]: 25 µM (≈ 32 µg/mL)
- MIC [11]: 12.5 µM (≈ 16 µg/mL)
- MIC [12]: 25 µM (≈ 32 µg/mL)
- MIC [13]: > 200 µM
- MIC [14]: 12.5 µM (≈ 16 µg/mL)
SMILES: CC[C@H](C)[C@H](N)C(=O)N[C@@H](Cc1ccccc1)C(=O)NCC(=O)N[C@H](C(=O)N[C@H](C(=O)N[C@@H](CC(C)C)C(=O)NCC(=O)N[C@@H](Cc1ccccc1)C(=O)N[C@@H](CC(C)C)C(=O)N[C@@H](CCCCN)C(=O)NCC(=O)N[C@@H](CC(C)C)C(N)=O)[C@@H](C)CC)[C@@H](C)O [IFGTILGFLKGL]

- MIC [28]: ≥ 188 µM
- MIC [29]: ≥ 188 µM
- MIC [30]: ≥ 188 µM
- MIC [32]: > 188 µM
- MIC [6]: > 188 µM
- MIC [33]: ≥ 188 µM
- MIC [34]: > 188 µM
- MIC [35]: ≥ 188 µM
- MIC [36]: ≥ 188 µM
- MIC [37]: > 188 µM
- MIC [13]: > 188 µM
SMILES: CC(C)C[C@H](NC(=O)[C@@H](N)CCCN=C(N)N)C(=O)N[C@@H](Cc1ccccc1)C(=O)N[C@@H](CCCN=C(N)N)C(=O)N[C@@H](CCCN=C(N)N)C(=O)N[C@H](C(=O)N[C@@H](CCCCN)C(=O)N[C@@H](CCCCN)C(=O)N[C@H](C(=O)N[C@@H](C)C(=O)NCC(N)=O)C(C)C)C(C)C [RLFRRVKKVAG]
- MIC [31]: ≥ 188 µM

The remaining lines, values behind:

SMILES: CC[C@H](C)[C@H](NC(=O)[C@H](CCCCN)NC(=O)[C@H](C)NC(=O)[C@H](CCCN=C(N)N)NC(=O)[C@H](CCCCN)NC(=O)CNC(=O)[C@H](CCCCN)NC(=O)[C@H](CCC(=O)O)NC(=O)[C@H](CCC(N)=O)NC(=O)[C@@H](NC(=O)[C@H](CCCCN)NC(=O)[C@H](CCCCN)NC(=O)[C@H](CCCCN)NC(=O)[C@H](CC(C)C)NC(=O)[C@H](CCCN=C(N)N)NC(=O)[C@H](CCC(N)=O)NC(=O)[C@H](Cc1ccccc1)NC(=O)[C@@H](NC(=O)[C@@H](NC(=O)[C@H](CCC(=O)O)NC(=O)[C@H](CCCCN)NC(=O)CNC(=O)[C@H](C)N)[C@@H](C)O)[C@@H](C)CC)[C@@H](C)CC)C(=O)N[C@@H](C)C(=O)N[C@@H](Cc1c[nH]c2ccccc12)C(=O)O [AGKETIFQRLKKKIQEKGKRAKIAW]
- MIC [15]: 1 µM (≈ 2.96 µg/mL)
- MIC [16]: 32 µM (≈ 94.6 µg/mL)
- MIC [17]: 0.5 µM (≈ 1.48 µg/mL)

SMILES: CC[C@H](C)[C@H](NC(=O)[C@H](CCCN=C(N)N)NC(=O)[C@H](CCCN=C(N)N)NC(=O)[C@H](Cc1ccc(O)cc1)NC(=O)[C@H](CCCN=C(N)N)NC(=O)[C@H](CC(C)C)NC(=O)[C@H](CC(C)C)NC(=O)[C@H](CCCCN)NC(=O)[C@H](CC(C)C)NC(=O)CNC(=O)[C@H](Cc1c[nH]c2ccccc12)NC(=O)[C@H](CS)NC(=O)[C@H](C)NC(=O)[C@H](Cc1c[nH]c2ccccc12)NC(=O)[C@H](CCCN=C(N)N)NC(=O)[C@@H](N)Cc1c[nH]c2ccccc12)C(=O)N[C@@H](Cc1ccc(O)cc1)C(=O)O [WRWACWGLKLLRYRRIY]
- MIC [18]: ≥ 64 µM
- MIC [19]: 8 µM (≈ 18.7 µg/mL)

SMILES: CC[C@H](C)[C@H](NC(=O)[C@H](CCCCN)NC(=O)[C@H](CCCCN)NC(=O)[C@H](Cc1c[nH]c2ccccc12)NC(=O)[C@@H](NC(=O)[C@H](CCCCN)NC(=O)[C@H](Cc1c[nH]c2ccccc12)NC(=O)[C@@H](N)CC(C)C)[C@@H](C)CC)C(=O)N[C@@H](Cc1c[nH]c2ccccc12)C(=O)N[C@@H](CCCN=C(N)N)C(=O)N[C@H](C(=O)N[C@@H](Cc1c[nH]c2ccccc12)C(=O)N[C@@H](CCCCN)C(=O)N[C@@H](CC(N)=O)C(=O)N[C@@H](Cc1c[nH]c2ccccc12)C(=O)N[C@@H](CCCN=C(N)N)C(=O)O)C(C)C [LWKIWKKIWRVWKNWR]
- MIC [20]: 3.44 µM (≈ 8 µg/mL)
- MIC [21]: 27.5 µM (≈ 64 µg/mL)
- MIC [22]: ≥ 55 µM
- MIC [23]: 13.8 µM (≈ 32 µg/mL)
- MIC [24]: 13.8 µM (≈ 32 µg/mL)

SMILES: CC[C@H](C)[C@H](NC(=O)[C@H](CCCCN)NC(=O)[C@H](Cc1c[nH]c2ccccc12)NC(=O)[C@@H](N)CC(C)C)C(=O)NCC(=O)N[C@@H](Cc1c[nH]c2ccccc12)C(=O)N[C@@H](CCCCN)C(=O)N[C@H](C(=O)N[C@@H](Cc1c[nH]c2ccccc12)C(=O)N[C@@H](CCCN=C(N)N)C(=O)N[C@H](C(=O)NCC(=O)O)C(C)C)[C@@H](C)CC [LWKIGWKIWRVG]
- MIC [25]: ≥ 41.5 µM
- MIC [26]: 83 µM (≈ 128 µg/mL)
- MIC [27]: ≥ 41.5 µM
- MIC [20]: ≥ 41.5 µM
- MIC [21]: 20.8 µM (≈ 32 µg/mL)
- MIC [22]: ≥ 83 µM
